# Experimental data as given in patent publication US20110229534A1, “Non-Irritating Oral Care Formulations” (The Trustees of Columbia University In The City Of New York, priority 2006, published 2011).
# Like-named read-outs stand apart in the source and are kept apart here.
# Assays:
# [1] = oral administration; cited from earlier work
# [2] = oral rinse containing ketorolac; small number of patients; cited from earlier work
# GCF-IL-1 beta = conditions: used as an oral rinse; cited from earlier work
# Streptococcus mutants = conditions: for Growth: CFU/ml: subcultured on TSA, 24 hours
# Experimental: A culture of Streptococcus mutants (causative bacteria for dental plaque) was grown in brain/heart infusion (BHI). Tubes containing 5 ml of BHI were inoculated with 0.1 ml of 10^5 CFU bacteria/ml and incubated anaerobically at 37° C. After 24 hours the turbidity was measured; the tubes were subcultured on TSA and incubated for 24 hours and colony counts were measured.
# [3] = cited from earlier work
compound,measurement,setting,value
O=C(c1ccccc1)c1ccc2n1CCC2C(=O)O (stereo not shown) [ketorolac],gastric mucosal side effect,[1],gastric mucosal ulceration
same,oral mucosal side effect,[2],ulceration in the oral mucosa was observed
same,effect on GCF-IL-1 beta in the oral cavity,GCF-IL-1 beta,reduce GCF-IL-1 beta
Zinc salicylate,anti-Streptococcus activity (conclusion),Streptococcus mutants,exhibit anti-Streptococcus activity
same,Growth: CFU/ml,Streptococcus mutants; 25 ug/ml,>10^8 CFU/ml
same,Growth: CFU/ml,Streptococcus mutants; 50 ug/ml,>10^6 CFU/ml
same,Growth: CFU/ml,Streptococcus mutants; 100 ug/ml,10 CFU/ml
same,Growth: CFU/ml,Streptococcus mutants; 200 ug/ml,0 CFU/ml
zinc glycerate,water solubility (in words),[3],moderately water soluble
zinc picolinate,water solubility (in words),[3],moderately water soluble
